Species on record: Rattus norvegicus
Experiment: DrugMatrix - Regimen: Daily Repeat
Format: toxicity, organism-based, Sprague-Dawley
Set-up: regimen Daily Repeat, gender Male, age 6-8 weeks
Conditions: in vivo, po, 17 mg/kg, route oral GAVAGE, dose level High, vehicle .5 % CMC; for ABSOLUTE BASOPHIL / ABSOLUTE EOSINOPHIL / ABSOLUTE LYMPHOCYTE / ABSOLUTE MONOCYTE / ABSOLUTE SEGMENTED NEUTROPHIL / BASOPHIL / EOSINOPHIL / ERYTHROCYTE COUNT / HEMATOCRIT / HEMOGLOBIN / LEUKOCYTE COUNT / LYMPHOCYTE / MEAN CORPUSCULAR HEMOGLOBIN / MEAN CORPUSCULAR HEMOGLOBIN CONCENTRATION / MEAN CORPUSCULAR VOLUME / MONOCYTE / NEUTROPHIL / NUCLEATED RED BLOOD CELLS / PLATELET COUNT: tissue Blood
[1] = 72 h, tissue Plasma, time 3 day
[2] = 120 h, tissue Plasma, time 5 day

## COc1ccc(C(=O)Nc2c(Cl)cncc2Cl)cc1OC1CCCC1
72 h, time 3 day
  ABSOLUTE BASOPHIL: 0 CELLS/uL
  ABSOLUTE EOSINOPHIL: 110.33 CELLS/uL
  ABSOLUTE LYMPHOCYTE: 17172 CELLS/uL
  ABSOLUTE MONOCYTE: 305.67 CELLS/uL
  ABSOLUTE SEGMENTED NEUTROPHIL: 3612 CELLS/uL
  BASOPHIL: 0%
  EOSINOPHIL: 0.67%
  ERYTHROCYTE COUNT: 5.87 x10E6/uL
  HEMATOCRIT: 36.6%
  HEMOGLOBIN: 13.33 G/DL
  LEUKOCYTE COUNT: 21.2 x10E3/uL
  LYMPHOCYTE: 82.67%
  MEAN CORPUSCULAR HEMOGLOBIN: 22.73 pg
  MEAN CORPUSCULAR HEMOGLOBIN CONCENTRATION: 36.47 G/DL
  MEAN CORPUSCULAR VOLUME: 62.43 fL
  MONOCYTE: 1.33%
  NEUTROPHIL: 15.33%
  NUCLEATED RED BLOOD CELLS: 0 /100WBC
  PLATELET COUNT: 1117.33 x10E3/uL
[1]
  ALANINE AMINOTRANSFERASE: 51.67 u/L
  ALBUMIN: 3.77 G/DL
  ALKALINE PHOSPHATASE: 361.67 u/L
  ASPARTATE AMINOTRANSFERASE: 68.67 u/L
  BLOOD UREA NITROGEN: 17.33 mg/dL
  CARBON DIOXIDE: 31.33 mmol/L
  CHLORIDE: 103 MEQ/L
  CHOLESTEROL: 74.67 mg/dL
  CREATININE: 0.18 mg/dL
  GLUCOSE: 188.33 mg/dL
  LACTATE DEHYDROGENASE: 139 u/L
  LIPASE: 9.33 u/L
  PHOSPHORUS: 12.77 mg/dL
  POTASSIUM: 6.6 MEQ/L
  SODIUM: 149.03 MEQ/L
  TOTAL BILIRUBIN: 0.13 mg/dL
  TOTAL PROTEIN: 6.1 G/DL
  URIC ACID: 2.07 mg/dL
120 h, time 5 day
  ABSOLUTE BASOPHIL: 0 CELLS/uL
  ABSOLUTE EOSINOPHIL: 84.67 CELLS/uL
  ABSOLUTE LYMPHOCYTE: 11281 CELLS/uL
  ABSOLUTE MONOCYTE: 472.33 CELLS/uL
  ABSOLUTE SEGMENTED NEUTROPHIL: 1195.33 CELLS/uL
  BASOPHIL: 0%
  EOSINOPHIL: 0.67%
  ERYTHROCYTE COUNT: 6 x10E6/uL
  HEMATOCRIT: 36.73%
  HEMOGLOBIN: 13.33 G/DL
  LEUKOCYTE COUNT: 13.03 x10E3/uL
  LYMPHOCYTE: 86.33%
  MEAN CORPUSCULAR HEMOGLOBIN: 22.23 pg
  MEAN CORPUSCULAR HEMOGLOBIN CONCENTRATION: 36.3 G/DL
  MEAN CORPUSCULAR VOLUME: 61.23 fL
  MONOCYTE: 3.67%
  NEUTROPHIL: 9.33%
  NUCLEATED RED BLOOD CELLS: 0 /100WBC
  PLATELET COUNT: 1070.67 x10E3/uL
[2]
  ALANINE AMINOTRANSFERASE: 64 u/L
  ALBUMIN: 4.1 G/DL
  ALKALINE PHOSPHATASE: 400 u/L
  ASPARTATE AMINOTRANSFERASE: 136.33 u/L
  BLOOD UREA NITROGEN: 13 mg/dL
  CARBON DIOXIDE: 34.33 mmol/L
  CHLORIDE: 101 MEQ/L
  CHOLESTEROL: 65.33 mg/dL
  CREATININE: 0.19 mg/dL
  GLUCOSE: 166.33 mg/dL
  LACTATE DEHYDROGENASE: 276.33 u/L
  LIPASE: 8.33 u/L
  PHOSPHORUS: 11.3 mg/dL
  POTASSIUM: 6.12 MEQ/L
  SODIUM: 149.43 MEQ/L
  TOTAL BILIRUBIN: 0.2 mg/dL
  TOTAL PROTEIN: 6.63 G/DL

Source: ChEMBL document CHEMBL3885881, “DrugMatrix”
